Measured values taken from patent US10898419B2, “Compounds for promoting hair growth and/or inhibiting or delaying hair loss in humans, and compositions for such uses” (GIULIANI S.P.A., priority 2016, dated 2021).

Tests used:
[1] = target: T1, olfactory receptor OR2AT4 (Homo sapiens, UniProt A6NND4); details: according to Busse et al.; cited from earlier work
T1 sequence (A6NND4 1-320): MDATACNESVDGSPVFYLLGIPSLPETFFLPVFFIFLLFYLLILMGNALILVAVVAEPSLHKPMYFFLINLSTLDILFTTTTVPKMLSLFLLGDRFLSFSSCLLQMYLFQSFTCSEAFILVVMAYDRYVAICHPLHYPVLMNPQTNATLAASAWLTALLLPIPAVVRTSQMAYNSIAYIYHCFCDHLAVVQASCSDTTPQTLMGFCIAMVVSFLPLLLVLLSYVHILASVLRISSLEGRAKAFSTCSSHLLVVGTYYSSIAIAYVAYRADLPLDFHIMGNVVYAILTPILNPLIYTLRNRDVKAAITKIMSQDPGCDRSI

[2] = test system: cultured human keratinocytes; details: Busse et al.; cited from earlier work
keratinocytes = details: long-term stimulation, in vitro wound scratch assay, Busse et al.; cited from earlier work
[3] = test system: human skin organ cultures; details: Busse et al.; cited from earlier work
[4] = test system: microdissected human scalp HFs; assay: Hair shaft elongation in HF organ culture; assay type: cell-based; details: 500 μM, cultured microdissected HFs from two donors, compared to vehicle
Protocol: (§1) Then, in order to assess whether stimulation of OR2AT4 can influence human hair growth, microdissected HFs were treated with sandal pentanol at a concentration of 500 μM, as the agonist and a hair shaft elongation measurement was performed (see Philpott et al., 1990). In addition, a kinase assay was conducted in order to identify which signalling pathways are involved in the specific stimulation of OR2AT4 by sandal pentanol.
Human scalp samples were obtained after face-lifting procedure and used at the same day for microdissecting human anagen VI scalp HFs. […]
(§2) Phenirat was added 30 min before sandal pentanol. Hair shaft elongation was measured daily using an inverted binocular microscope (Philpott et al., 1990) and culture medium was replaced every second day. […]
To check whether the activation of OR2AT4 can influence the hair cycle of human HF, microdissected human HFs were specifically stimulated with the potential agonist, sandal pentanol. The effect of the sandal pentanol treatment was evaluated by measuring hair shaft elongation compared to vehicle.
HF elongation was measured in cultured microdissected HFs. […]

[5] = test system: apoptotic signalling pathway; assay: Kinase assay of signalling pathways after OR2AT4 stimulation; assay type: cell-based, human; details: specific stimulation of OR2AT4 in microdissected HFs
Protocol: as §1

[6] = test system: microdissected human scalp HFs; assay: Hair cycle score / staging (catagen induction) in HF organ culture; assay type: cell-based; details: 500 μM (Phenirat 1:1), 6 days of culture, compared to vehicle
Protocol: (§3) HFs were treated with either the vehicle, sandal pentanol, Phenirat or a mixture of sandal pentanol and Phenirat. To analyse modifications of the hair cycle, Ki67/TUNEL were performed and used to evaluate hair cycle score and hair matrix keratinocytes proliferation and apoptosis.
Human scalp samples were obtained after face-lifting procedure and used at the same day for microdissecting human anagen VI scalp HFs. Microdissected human scalp HFs were cultured at 37° C. with 5% CO2 in a minimal media of William's E media (Gibco, Life technologies) supplemented with 2 mM of L-glutamine (Gibco), 10 ng/ml hydrocortisone (Sigma-Aldrich), 10 μg/ml insulin (Sigma-Aldrich) and 1% penicillin/streptomycin mix (Gibco) (WEM) as previously described (Philpott, 1990; Kloepper, 2010; Langan et al, 2015). […]
as §2
To investigate the specificity of the effect on hair growth of OR2AT4 stimulation by sandal pentanol, microdissected HFs were cultured with sandal pentanol and/or Phenirat, and hair cycle performed staging analysis as previously described (Kloepper, 2010; Langan et al, 2015). Hair cycle score was measured both in treated and vehicle HFs after 6 days of culture. […]

TGFβ2 = TGFβ2 immunofluorescence in ORS keratinocytes of cultured HFs; assay type: cell-based, human; details: 500 μM (Phenirat 1:1), 6 day-treatment, proximal ORS keratinocytes, compared to vehicle
Protocol: In addition, TGFβ2, a potent catagen inducer, was investigated with reference to the same above compounds.
OCT embedded samples were sectioned (6 μm thickness) with a cryostat. Sections were fixed in 4% paraformaldehyde, pre-incubated with 10% of goat serum (for OR2AT4) or 5% goat serum+0.3% Tritton X-100 (for cleaved-caspase 3) and incubated with the corresponding primary antibody at 4° C. overnight ( 1/100 for OR2AT4 and 1/400 for cleaved-caspase 3). Secondary antibody incubation was performed at RT for 45 min. Counterstaining with DAPI (1 μg/mL) was performed to visualize nuclei. For TGFb2, samples were fixed in acetone and the endogenous peroxidases were blocked with 3% of H2O2. This step was followed by an avidin-biotin blocking step and a preincubation with TNB buffer (Tris HCl+NaCl+Casein). […] Images were taken using a Keyence fluorescence microscope (Osaka, Japan) maintaining a constant set exposure time throughout imaging for further analysis. […]
Staining intensity was evaluated in well-defined reference areas by quantitative (immuno-)histomorphometry, as previously described (Bertolini et al., 2014) using NIH IMAGE software (NIH, Bethesda, Md., USA). […]
TGFβ2 expression was quantified using Image J. Mean±SEM, n=14-22 HFs from 2 patients, Kruskal-Wallis and Dunn's multiple comparisons test as post hoc test, *p<0.05, ***p<0.001, and Mann-Whitney test, ns. […]

[7] = test system: hair matrix keratinocytes; assay: Ki67/TUNEL staining of hair matrix keratinocytes in HF organ culture; assay type: cell-based, human; details: 500 μM (Phenirat 1:1), 6 day-culture, compared to vehicle
Protocol: as §3
OCT embedded samples were sectioned (6 μm thickness) with a cryostat. Sections were fixed in 4% paraformaldehyde, pre-incubated with 10% of goat serum (for OR2AT4) or 5% goat serum+0.3% Tritton X-100 (for cleaved-caspase 3) and incubated with the corresponding primary antibody at 4° C. overnight ( 1/100 for OR2AT4 and 1/400 for cleaved-caspase 3). Secondary antibody incubation was performed at RT for 45 min. Counterstaining with DAPI (1 μg/mL) was performed to visualize nuclei. For TGFb2, samples were fixed in acetone and the endogenous peroxidases were blocked with 3% of H2O2. This step was followed by an avidin-biotin blocking step and a preincubation with TNB buffer (Tris HCl+NaCl+Casein). The corresponding primary antibody was incubated at 4° C. overnight ( 1/1000 for TGFb2). Secondary antibody incubation was performed at RT for 45 min before using the Tyramide signal amplification kit (Perkin Elmer). Counterstaining with DAPI was performed to visualize nuclei. To stain apoptotic and proliferating cells, we have used the apoptag kit (Merck Milipore) following manufacture's protocol followed by Ki67 staining. The primary antibody was incubated overnight (Ki67, 1/20) after the TdT-enzyme step. The secondary antibody was incubated for 45 min at RT after the fluorescent-labelled anti-Digoxigenin step of the apoptag kit. Counterstaining with DAPI was performed to visualize nuclei. Negative controls were performed by omitting the primary antibody. Images were taken using a Keyence fluorescence microscope (Osaka, Japan) maintaining a constant set exposure time throughout imaging for further analysis.
After 24 h of incubation, WEM medium was replaced and HFs were treated with the corresponding substances for 6 days following experimental conditions. HFs were treated either with vehicle (0.1% DMSO), sandal pentanol (500 μM), Phenirat (in a ratio 1:1 to the agonist), or a mixture sandal pentanol+Phenirat.
Staining intensity was evaluated in well-defined reference areas by quantitative (immuno-)histomorphometry, as previously described (Bertolini et al., 2014) using NIH IMAGE software (NIH, Bethesda, Md., USA).
With reference to the evidence of FIG. 4, to investigate whether sandal pentanol influences hair matrix keratinocytes proliferation and apoptosis, Ki67/TUNEL staining was performed. Proliferating (diagram of FIG. 4A) and apoptotic (diagram of FIG. 4B) hair matrix keratinocytes were counted in the hair matrix of treated and vehicle HFs. […]

effect on apoptotic signalling pathway [5] | SMILES | activity at olfactory receptor OR2AT4 [1] | Ca2+ signals [2] | cell proliferation, migration and regeneration of keratinocyte monolayers (keratinocytes) | epidermal wound healing [3] | hair shaft elongation [4] | catagen induction / anagen prolongation (hair cycle score) [6] | TGFβ2 expression at the protein level (TGFβ2) | hair matrix keratinocyte apoptosis (TUNEL) [7] | hair matrix keratinocyte proliferation (Ki67) [7]
– | CC1=CC[C@@H](CC[C@@H](C)CO)C1(C)C (stereo in doubt) [brahmanol, 2-Methyl-4-(2,2,3-trimethyl-3-cyclopenten-1-yl)butanol] | agonists | induce Ca^2+ signals | – | – | – | – | – | – | –
Inhibits Apoptotic Signalling Pathway | CC1=CCC(CCC(C)C(C)O)C1(C)C (centres unmarked) [sandal pentanol, 3-methyl-5-(2,2,3-trimethylcyclopent-3-en-1-yl)pentan-2-ol] | agonists | induce Ca^2+ signals | positively affects | enhances epidermal wound healing | stimulates hair shaft elongation | delayed catagen induction | significant decrease | significantly decreased | did not change
– | CC(C)C(=O)OCCOc1ccccc1 [Phenirat, phenoxyethyl isobutyrate, reference compound] | specific antagonist | – | – | – | – | did not prolong anagen | no change | this effect is not obtained | did not change
